Results taken from PubChem BioAssay (NCI).
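Each compound was tested at five concentrations against cells in 96-well plates for 48 hours. Abbreviation: GI50, concentration required for 50% inhibition of growth. TGI is the concentration that stops growth completely.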

How the values were obtained:
Test in all cases: NCI tumour cell line growth inhibition, 48 h
NCI-H522 lung = test system: NCI-H522 lung
M14 melanoma = test system: M14 melanoma
OVCAR-3 ovarian = test system: OVCAR-3 ovarian
K-562 leukemia = test system: K-562 leukemia
RPMI-8226 leukemia = test system: RPMI-8226 leukemia
SF-295 CNS = test system: SF-295 CNS
HCT-116 colon = test system: HCT-116 colon
RXF 393 renal = test system: RXF 393 renal
OVCAR-5 ovarian = test system: OVCAR-5 ovarian
SK-MEL-28 melanoma = test system: SK-MEL-28 melanoma
SK-MEL-5 melanoma = test system: SK-MEL-5 melanoma
HCT-15 colon = test system: HCT-15 colon
ACHN renal = test system: ACHN renal
SF-539 CNS = test system: SF-539 CNS
MCF7 breast = test system: MCF7 breast
NCI-H23 lung = test system: NCI-H23 lung
T-47D breast = test system: T-47D breast
SNB-19 CNS = test system: SNB-19 CNS
CCRF-CEM leukemia = test system: CCRF-CEM leukemia
786-0 renal = test system: 786-0 renal
CAKI-1 renal = test system: CAKI-1 renal
DU-145 prostate = test system: DU-145 prostate
MALME-3M melanoma = test system: MALME-3M melanoma
NCI-H460 lung = test system: NCI-H460 lung
SN12C renal = test system: SN12C renal
TK-10 renal = test system: TK-10 renal
A549 NSCLC = test system: A549 NSCLC
SR leukemia = test system: SR leukemia
EKVX NSCLC = test system: EKVX NSCLC
SK-OV-3 ovarian = test system: SK-OV-3 ovarian
MOLT-4 leukemia = test system: MOLT-4 leukemia
HL-60(TB) leukemia = test system: HL-60(TB) leukemia
UACC-257 melanoma = test system: UACC-257 melanoma
UO-31 renal = test system: UO-31 renal
HOP-92 NSCLC = test system: HOP-92 NSCLC
IGROV1 ovarian = test system: IGROV1 ovarian
PC-3 prostate = test system: PC-3 prostate
HS 578T breast = test system: HS 578T breast
NCI-H226 lung = test system: NCI-H226 lung
HCC-2998 colon = test system: HCC-2998 colon
A498 renal = test system: A498 renal
NCI/ADR-RES ovarian = test system: NCI/ADR-RES ovarian
UACC-62 melanoma = test system: UACC-62 melanoma
COLO 205 colon = test system: COLO 205 colon
HOP-62 NSCLC = test system: HOP-62 NSCLC
SNB-75 CNS = test system: SNB-75 CNS
HT29 colon = test system: HT29 colon
SF-268 CNS = test system: SF-268 CNS
OVCAR-8 ovarian = test system: OVCAR-8 ovarian
MDA-MB-231 breast = test system: MDA-MB-231 breast
BT-549 breast = test system: BT-549 breast
U251 CNS = test system: U251 CNS
OVCAR-4 ovarian = test system: OVCAR-4 ovarian
SW-620 colon = test system: SW-620 colon
MDA-MB-435 = test system: MDA-MB-435
KM12 colon = test system: KM12 colon
LOX IMVI melanoma = test system: LOX IMVI melanoma
SK-MEL-2 melanoma = test system: SK-MEL-2 melanoma

## C[As](C)SCC(COC(=O)C(Cl)c1ccccc1)OC(=O)C(Cl)c1ccccc1 (stereo not drawn)
NCI-H522 lung
  GI50: 0.361 µM
  TGI: > 38.8 µM
M14 melanoma
  GI50: 0.614 µM
  TGI: 15.7 µM
OVCAR-3 ovarian
  GI50: 0.179 µM
  TGI: 0.474 µM
K-562 leukemia
  GI50: 0.147 µM
RPMI-8226 leukemia
  GI50: 0.299 µM
  TGI: 1.37 µM
SF-295 CNS
  GI50: 7.79 µM
  TGI: 29.1 µM
HCT-116 colon
  GI50: 0.439 µM
  TGI: 2.67 µM
RXF 393 renal
  GI50: 0.641 µM
  TGI: 15 µM
OVCAR-5 ovarian
  GI50: 6.69 µM
  TGI: > 37.2 µM
SK-MEL-28 melanoma
  GI50: 10.6 µM
  TGI: 28.1 µM
SK-MEL-5 melanoma
  GI50: 0.305 µM
  TGI: 1.12 µM
HCT-15 colon
  GI50: 0.229 µM
  TGI: 4.02 µM
ACHN renal
  GI50: 1.36 µM
  TGI: 11.4 µM
SF-539 CNS
  GI50: 0.968 µM
  TGI: 3.43 µM
MCF7 breast
  GI50: 0.46 µM
  TGI: 12.9 µM
NCI-H23 lung
  GI50: 0.719 µM
  TGI: 14.6 µM
T-47D breast
  GI50: 17.1 µM
  TGI: > 45.8 µM
SNB-19 CNS
  GI50: 14.5 µM
  TGI: 50 µM
CCRF-CEM leukemia
  GI50: 0.339 µM
  TGI: 2.14 µM
786-0 renal
  GI50: 0.884 µM
  TGI: 8.05 µM
CAKI-1 renal
  GI50: 0.506 µM
  TGI: 6.58 µM
DU-145 prostate
  GI50: 1.24 µM
  TGI: 16.9 µM
MALME-3M melanoma
  GI50: 0.139 µM
  TGI: 1.44 µM
NCI-H460 lung
  GI50: 9.03 µM
  TGI: 33.6 µM
SN12C renal
  GI50: 2.48 µM
  TGI: 10.9 µM
TK-10 renal
  GI50: 0.222 µM
  TGI: 1.58 µM
A549 NSCLC
  GI50: 3.84 µM
  TGI: 15.2 µM
SR leukemia
  GI50: 1.41 µM
  TGI: 5.84 µM
EKVX NSCLC
  GI50: 2.44 µM
  TGI: 24.3 µM
SK-OV-3 ovarian
  GI50: 2.63 µM
  TGI: > 54.9 µM
MOLT-4 leukemia
  GI50: 0.49 µM
HL-60(TB) leukemia
  GI50: 0.418 µM
UACC-257 melanoma
  GI50: 0.332 µM
  TGI: 12.6 µM
UO-31 renal
  GI50: 1.55 µM
  TGI: > 44.4 µM
HOP-92 NSCLC
  GI50: 0.381 µM
  TGI: 3.9 µM
IGROV1 ovarian
  GI50: 1.93 µM
  TGI: > 42.6 µM
PC-3 prostate
  GI50: 0.74 µM
  TGI: 19.4 µM
HS 578T breast
  GI50: 3.4 µM
  TGI: 46.5 µM
NCI-H226 lung
  GI50: 20.1 µM
  TGI: 41.8 µM
HCC-2998 colon
  GI50: 1.72 µM
  TGI: 4.75 µM
A498 renal
  GI50: 4.34 µM
  TGI: 17.2 µM
NCI/ADR-RES ovarian
  GI50: 2.76 µM
  TGI: 16.8 µM
UACC-62 melanoma
  GI50: 3.19 µM
  TGI: 52.9 µM
COLO 205 colon
  GI50: 1.43 µM
HOP-62 NSCLC
  GI50: 6.66 µM
  TGI: 21.6 µM
SNB-75 CNS
  GI50: 10.6 µM
  TGI: 42.6 µM
HT29 colon
  GI50: 0.754 µM
  TGI: > 100 µM
SF-268 CNS
  GI50: 3.3 µM
  TGI: 14.9 µM
OVCAR-8 ovarian
  GI50: 3.41 µM
  TGI: > 35.2 µM
MDA-MB-231 breast
  GI50: 1.53 µM
  TGI: 4.95 µM
BT-549 breast
  GI50: 2.68 µM
  TGI: 14.3 µM
U251 CNS
  GI50: 3.42 µM
  TGI: 31.6 µM
OVCAR-4 ovarian
  GI50: 4.38 µM
  TGI: 18 µM
SW-620 colon
  GI50: 0.491 µM
  TGI: 28.2 µM
MDA-MB-435
  GI50: 0.367 µM
  TGI: 3.13 µM
KM12 colon
  GI50: 2.24 µM
  TGI: 13.5 µM

## CCN(CC)CC(O)CNc1c2ccc([N+](=O)[O-])cc2nc2cc(OC)c(OC)cc12 (stereo not drawn)
NCI-H522 lung
  GI50: 0.267 µM
  TGI: 0.823 µM
M14 melanoma
  GI50: 0.368 µM
  TGI: 1.55 µM
OVCAR-3 ovarian
  GI50: 0.207 µM
  TGI: 0.543 µM
K-562 leukemia
  GI50: 0.396 µM
  TGI: 10.9 µM
RPMI-8226 leukemia
  GI50: 0.359 µM
  TGI: 2.14 µM
SF-295 CNS
  GI50: 0.41 µM
  TGI: 2.06 µM
HCT-116 colon
  GI50: 0.2 µM
  TGI: 0.636 µM
RXF 393 renal
  GI50: 0.469 µM
  TGI: 1.86 µM
OVCAR-5 ovarian
  GI50: 0.306 µM
  TGI: 2.55 µM
LOX IMVI melanoma
  GI50: 0.238 µM
  TGI: 0.662 µM
SK-MEL-28 melanoma
  GI50: 0.47 µM
  TGI: 1.93 µM
SK-MEL-5 melanoma
  GI50: 0.273 µM
  TGI: 0.769 µM
HCT-15 colon
  GI50: 0.854 µM
  TGI: 3.6 µM
ACHN renal
  GI50: 0.396 µM
  TGI: 2.36 µM
SF-539 CNS
  GI50: 0.35 µM
  TGI: 1.45 µM
MCF7 breast
  GI50: 0.0534 µM
  TGI: 0.761 µM
NCI-H23 lung
  GI50: 0.22 µM
  TGI: 0.705 µM
T-47D breast
  GI50: 0.369 µM
  TGI: 1.62 µM
SNB-19 CNS
  GI50: 0.24 µM
  TGI: 1.31 µM
CCRF-CEM leukemia
  GI50: 0.517 µM
  TGI: 10.4 µM
786-0 renal
  GI50: 0.659 µM
  TGI: 3.88 µM
CAKI-1 renal
  GI50: 4.5 µM
  TGI: 16.6 µM
DU-145 prostate
  GI50: 0.304 µM
  TGI: 1.3 µM
MALME-3M melanoma
  GI50: 0.249 µM
  TGI: 0.573 µM
NCI-H460 lung
  GI50: 0.185 µM
  TGI: 0.669 µM
SN12C renal
  GI50: 0.335 µM
  TGI: 2.79 µM
TK-10 renal
  GI50: 1.94 µM
  TGI: 9.79 µM
A549 NSCLC
  GI50: 0.262 µM
  TGI: 0.854 µM
SR leukemia
  GI50: 0.303 µM
  TGI: 11.1 µM
EKVX NSCLC
  GI50: 0.336 µM
  TGI: 1.85 µM
SK-OV-3 ovarian
  GI50: 0.535 µM
  TGI: 2.84 µM
MOLT-4 leukemia
  GI50: 0.376 µM
  TGI: 12.4 µM
HL-60(TB) leukemia
  GI50: 2.06 µM
  TGI: 6.81 µM
UACC-257 melanoma
  GI50: 1.45 µM
  TGI: 3.83 µM
UO-31 renal
  GI50: 2.21 µM
  TGI: 12.9 µM
HOP-92 NSCLC
  GI50: 0.164 µM
  TGI: 0.642 µM
IGROV1 ovarian
  GI50: 0.305 µM
  TGI: 1.51 µM
PC-3 prostate
  GI50: 0.329 µM
  TGI: 1.05 µM
HS 578T breast
  GI50: 0.728 µM
  TGI: 5.09 µM
NCI-H226 lung
  GI50: 0.392 µM
  TGI: 2.01 µM
HCC-2998 colon
  GI50: 0.24 µM
  TGI: 0.576 µM
A498 renal
  GI50: 1.36 µM
  TGI: 3.08 µM
NCI/ADR-RES ovarian
  GI50: 4.63 µM
  TGI: 18.7 µM
UACC-62 melanoma
  GI50: 0.453 µM
  TGI: 1.8 µM
SNB-75 CNS
  GI50: 0.488 µM
  TGI: 1.88 µM
HT29 colon
  GI50: 0.258 µM
  TGI: 1.2 µM
SF-268 CNS
  GI50: 0.293 µM
  TGI: 1.34 µM
OVCAR-8 ovarian
  GI50: 0.55 µM
  TGI: 11 µM
MDA-MB-231 breast
  GI50: 0.244 µM
  TGI: 0.883 µM
BT-549 breast
  GI50: 1.81 µM
  TGI: 3.85 µM
OVCAR-4 ovarian
  GI50: 0.162 µM
  TGI: 0.574 µM
SW-620 colon
  GI50: 0.289 µM
  TGI: 2.37 µM
MDA-MB-435
  GI50: 0.374 µM
  TGI: 1.42 µM
KM12 colon
  GI50: 0.343 µM
  TGI: 1.37 µM
SK-MEL-2 melanoma
  GI50: 0.256 µM
  TGI: 0.659 µM
